Measurements: US11459323B2, “Monocyclic β-lactam compound for treating bacterial infection” (MEDSHINE DISCOVERY INC., priority 2018, dated 2022)
Converted amounts (≈) assume the structure as drawn.

Legend:
Assay in all cases: MIC on clinically isolated bacteria
Format in all cases: cell-based
[1] = system: Acinetobacter baumannii C181; settings: Acinetobacter baumannii C181; read-out: Minimum Inhibitory Concentration (MIC)
Text: (§1) Twenty-five strains of clinically isolated Acinetobacter baumannii and twenty-seven strains of Pseudomonas aeruginosa were respectively selected and used to determine the minimum inhibitory concentration (MIC) of the compounds by micro-liquid dilution method according to the Institute of Clinical and Laboratory Standard (CLSI) requirements.

[2] = system: Acinetobacter baumannii C241; settings: Acinetobacter baumannii C241; read-out: Minimum Inhibitory Concentration (MIC)
Text: as §1

[3] = system: Acinetobacter baumannii C251; settings: Acinetobacter baumannii C251; read-out: Minimum Inhibitory Concentration (MIC)
Text: as §1

[4] = system: Acinetobacter baumannii C279; settings: Acinetobacter baumannii C279; read-out: Minimum Inhibitory Concentration (MIC)
Text: as §1

[5] = system: Acinetobacter baumannii C281; settings: Acinetobacter baumannii C281; read-out: Minimum Inhibitory Concentration (MIC)
Text: as §1

[6] = system: Acinetobacter baumannii C283; settings: Acinetobacter baumannii C283; read-out: Minimum Inhibitory Concentration (MIC)
Text: as §1

[7] = system: Acinetobacter baumannii C312; settings: Acinetobacter baumannii C312; read-out: Minimum Inhibitory Concentration (MIC)
Text: as §1

[8] = system: Acinetobacter baumannii C313; settings: Acinetobacter baumannii C313; read-out: Minimum Inhibitory Concentration (MIC)
Text: as §1

[9] = system: Acinetobacter baumannii C315; settings: Acinetobacter baumannii C315; read-out: Minimum Inhibitory Concentration (MIC)
Text: as §1

[10] = system: Acinetobacter baumannii C319; settings: Acinetobacter baumannii C319; read-out: Minimum Inhibitory Concentration (MIC)
Text: as §1

[11] = system: Acinetobacter baumannii C328; settings: Acinetobacter baumannii C328; read-out: Minimum Inhibitory Concentration (MIC)
Text: as §1

[12] = system: Acinetobacter baumannii C332; settings: Acinetobacter baumannii C332; read-out: Minimum Inhibitory Concentration (MIC)
Text: as §1

[13] = system: Acinetobacter baumannii C333; settings: Acinetobacter baumannii C333; read-out: Minimum Inhibitory Concentration (MIC)
Text: as §1

[14] = system: Acinetobacter baumannii C390; settings: Acinetobacter baumannii C390; read-out: Minimum Inhibitory Concentration (MIC)
Text: as §1

[15] = system: Acinetobacter baumannii C394; settings: Acinetobacter baumannii C394; read-out: Minimum Inhibitory Concentration (MIC)
Text: as §1

[16] = system: Acinetobacter baumannii C395; settings: Acinetobacter baumannii C395; read-out: Minimum Inhibitory Concentration (MIC)
Text: as §1

[17] = system: Acinetobacter baumannii C402; settings: Acinetobacter baumannii C402; read-out: Minimum Inhibitory Concentration (MIC)
Text: as §1

[18] = system: Acinetobacter baumannii C408; settings: Acinetobacter baumannii C408; read-out: Minimum Inhibitory Concentration (MIC)
Text: as §1

[19] = system: Acinetobacter baumannii C427; settings: Acinetobacter baumannii C427; read-out: Minimum Inhibitory Concentration (MIC)
Text: as §1

Aeruginosa ATCC27853 = settings: Pseudomonas aeruginosa; Aeruginosa ATCC27853; read-out: MIC
Text: as §1

[20] = system: Pseudomonas aeruginosa C745; settings: read-out: MIC
Text: as §1

[21] = system: Pseudomonas aeruginosa C754; settings: read-out: MIC
Text: as §1

[22] = system: Pseudomonas aeruginosa C755; settings: read-out: MIC
Text: as §1

[23] = system: Pseudomonas aeruginosa C761; settings: read-out: MIC
Text: as §1

[24] = system: Pseudomonas aeruginosa C762; settings: read-out: MIC
Text: as §1

[25] = system: Pseudomonas aeruginosa C763; settings: read-out: MIC
Text: as §1

[26] = system: Pseudomonas aeruginosa M1; settings: read-out: MIC
Text: as §1

[27] = system: Pseudomonas aeruginosa M4; settings: read-out: MIC
Text: as §1

[28] = system: Pseudomonas aeruginosa W13; settings: read-out: MIC
Text: as §1

[29] = system: Pseudomonas aeruginosa W20; settings: read-out: MIC
Text: as §1

[30] = system: Pseudomonas aeruginosa W21; settings: read-out: MIC
Text: as §1

[31] = system: Pseudomonas aeruginosa W23; settings: read-out: MIC
Text: as §1

[32] = system: Pseudomonas aeruginosa W27; settings: read-out: MIC
Text: as §1

[33] = system: Pseudomonas aeruginosa W28; settings: read-out: MIC
Text: as §1

[34] = system: Pseudomonas aeruginosa W29; settings: read-out: MIC
Text: as §1

[35] = system: Pseudomonas aeruginosa W32; settings: read-out: MIC
Text: as §1

[36] = system: Pseudomonas aeruginosa W42; settings: read-out: MIC
Text: as §1

[37] = system: Pseudomonas aeruginosa W46; settings: read-out: MIC
Text: as §1

[38] = system: Pseudomonas aeruginosa W47; settings: read-out: MIC
Text: as §1

[39] = system: Pseudomonas aeruginosa W4; settings: read-out: MIC
Text: as §1

[40] = system: Pseudomonas aeruginosa W9; settings: read-out: MIC
Text: as §1

## CC1(C)[C@H](NC(=O)/C(=N\O[C@@H](COc2ccc3c(c2)CN(C(=N)N[C@@H]2CCCNC2)C3)C(=O)O)c2csc(N)n2)C(=O)N1OS(=O)(=O)O [Compound 41]
[1]
  MIC: 4 µg/mL (≈ 5.64 µM)
[2]
  MIC: 4 µg/mL (≈ 5.64 µM)
[3]
  MIC: 8 µg/mL (≈ 11.3 µM)
[4]
  MIC: 2 µg/mL (≈ 2.82 µM)
[5]
  MIC: 2 µg/mL (≈ 2.82 µM)
[6]
  MIC: 2 µg/mL (≈ 2.82 µM)
[7]
  MIC: 2 µg/mL (≈ 2.82 µM)
[8]
  MIC: 2 µg/mL (≈ 2.82 µM)
[9]
  MIC: 2 µg/mL (≈ 2.82 µM)
[10]
  MIC: 2 µg/mL (≈ 2.82 µM)
[11]
  MIC: 2 µg/mL (≈ 2.82 µM)
[12]
  MIC: 2 µg/mL (≈ 2.82 µM)
[13]
  MIC: 2 µg/mL (≈ 2.82 µM)
[14]
  MIC: 2 µg/mL (≈ 2.82 µM)
[15]
  MIC: 2 µg/mL (≈ 2.82 µM)
[16]
  MIC: 2 µg/mL (≈ 2.82 µM)
[17]
  MIC: 2 µg/mL (≈ 2.82 µM)
[18]
  MIC: 2 µg/mL (≈ 2.82 µM)
[19]
  MIC: 4 µg/mL (≈ 5.64 µM)
Aeruginosa ATCC27853
  MIC: 0.5 µg/mL (≈ 0.704 µM)
[20]
  MIC: 4 µg/mL (≈ 5.64 µM)
[21]
  MIC: 0.5 µg/mL (≈ 0.704 µM)
[22]
  MIC: 0.5 µg/mL (≈ 0.704 µM)
[23]
  MIC: 1 µg/mL (≈ 1.41 µM)
[24]
  MIC: 8 µg/mL (≈ 11.3 µM)
[25]
  MIC: 4 µg/mL (≈ 5.64 µM)
[26]
  MIC: 1 µg/mL (≈ 1.41 µM)
[27]
  MIC: 0.5 µg/mL (≈ 0.704 µM)
[28]
  MIC: 0.5 µg/mL (≈ 0.704 µM)
[29]
  MIC: 4 µg/mL (≈ 5.64 µM)
[30]
  MIC: 0.5 µg/mL (≈ 0.704 µM)
[31]
  MIC: 0.5 µg/mL (≈ 0.704 µM)
[32]
  MIC: 4 µg/mL (≈ 5.64 µM)
[33]
  MIC: 4 µg/mL (≈ 5.64 µM)
[34]
  MIC: 1 µg/mL (≈ 1.41 µM)
[35]
  MIC: 4 µg/mL (≈ 5.64 µM)
[36]
  MIC: 0.5 µg/mL (≈ 0.704 µM)
[37]
  MIC: 2 µg/mL (≈ 2.82 µM)
[38]
  MIC: 2 µg/mL (≈ 2.82 µM)
[39]
  MIC: 0.5 µg/mL (≈ 0.704 µM)
[40]
  MIC: 4 µg/mL (≈ 5.64 µM)

## C[C@@H](O)[C@H]1C(=O)N2C(C(=O)O)=C(S[C@@H]3CN[C@H](C(=O)N(C)C)C3)[C@H](C)[C@H]12 [Meropenem, reference compound]
[1]
  MIC: 128 µg/mL (≈ 334 µM)
[2]
  MIC: 64 µg/mL (≈ 167 µM)
[3]
  MIC: 64 µg/mL (≈ 167 µM)
[4]
  MIC: 64 µg/mL (≈ 167 µM)
[5]
  MIC: 64 µg/mL (≈ 167 µM)
[6]
  MIC: 64 µg/mL (≈ 167 µM)
[7]
  MIC: 64 µg/mL (≈ 167 µM)
[8]
  MIC: 64 µg/mL (≈ 167 µM)
[9]
  MIC: 64 µg/mL (≈ 167 µM)
[10]
  MIC: 64 µg/mL (≈ 167 µM)
[12]
  MIC: 64 µg/mL (≈ 167 µM)
[13]
  MIC: 64 µg/mL (≈ 167 µM)
[14]
  MIC: 64 µg/mL (≈ 167 µM)
[15]
  MIC: 64 µg/mL (≈ 167 µM)
[17]
  MIC: 64 µg/mL (≈ 167 µM)
[18]
  MIC: 128 µg/mL (≈ 334 µM)
[19]
  MIC: 64 µg/mL (≈ 167 µM)
Aeruginosa ATCC27853
  MIC: < 0.25 µg/mL
[20]
  MIC: 32 µg/mL (≈ 83.4 µM)
[21]
  MIC: < 0.25 µg/mL
[22]
  MIC: < 0.25 µg/mL
[23]
  MIC: < 0.25 µg/mL
[24]
  MIC: 32 µg/mL (≈ 83.4 µM)
[25]
  MIC: 32 µg/mL (≈ 83.4 µM)
[26]
  MIC: 4 µg/mL (≈ 10.4 µM)
[27]
  MIC: 0.5 µg/mL (≈ 1.3 µM)
[28]
  MIC: 16 µg/mL (≈ 41.7 µM)
[29]
  MIC: 8 µg/mL (≈ 20.9 µM)
[30]
  MIC: 16 µg/mL (≈ 41.7 µM)
[31]
  MIC: 16 µg/mL (≈ 41.7 µM)
[32]
  MIC: 32 µg/mL (≈ 83.4 µM)
[33]
  MIC: 32 µg/mL (≈ 83.4 µM)
[34]
  MIC: 4 µg/mL (≈ 10.4 µM)
[35]
  MIC: 4 µg/mL (≈ 10.4 µM)
[36]
  MIC: 1 µg/mL (≈ 2.61 µM)
[37]
  MIC: 2 µg/mL (≈ 5.22 µM)
[38]
  MIC: 4 µg/mL (≈ 10.4 µM)
[39]
  MIC: 2 µg/mL (≈ 5.22 µM)
[40]
  MIC: 16 µg/mL (≈ 41.7 µM)
